Measurements reported in patent US20090142846A1, “METHODS FOR MEASURING BIOCHEMICAL REACTIONS” (EKSIGENT TECHNOLOGIES, LLC, priority 2005, published 2009).
Like-named read-outs stand apart in the source and are kept apart here.

How the values were obtained:
[1] = molecular target: P. falciparum LDH (Plasmodium falciparum, UniProt Q27743); experiment: Fluorescence-coupled LDH enzyme assay on microfluidics system with continuously variable concentration gradient; format: biochemical
Text: A fluorescence-coupled enzyme assay was developed using a microfluidics system described herein for creating a continuously variable concentration gradient to monitor the reduction of NAD^+ by the enzyme LDH to give a fluorescent end product. This system was then adapted to measure potency and determine mechanism of inhibition by various inhibitors of LDH.
One of the products of the reaction in the assay, NADH, is coupled to Thermus thermophilus NADH oxidase to generate H2O2, which in turn is coupled to horseraddish peroxidase which reacts with […] and amplex red (Molecular Probes, Inc., Eugene, Oreg., U.S.A.) to give the fluorescent product resorufin. […]
The novel data analysis techniques described herein for determining the mechanism of inhibition of an inhibitor (or mechanism of activation of an activator) are applied to the data produced from the microfluidics system. The titration of the enzyme with a continuous linear variation of inhibitor and substrate from zero to a pre-determined finite concentration yields a characteristic rate profile that is defined by the specific type of interaction of the inhibitor and enzyme with respect to the substrate. […]
The titration of LDH with a linear gradient of NAD^+ was performed on the microfluidics system described herein with the change in relative fluorescence intensity monitored under initial rate conditions. […]

[2] = system: LDH; details: cited from earlier work
[3] = molecular target: rabbit muscle lactate dehydrogenase (LDH) (Oryctolagus cuniculus, UniProt P13491); experiment: Continuous variation method on a microtiter plate (step concentration gradients); format: biochemical; details: limited data
Text: Determination of the mechanism of inhibition by the inhibitor oxalate with respect to the substrate NAD^+ against the enzyme rabbit muscle lactate dehydrogenase (LDH) using a microtiter plate to generate individual step concentration gradients was attempted. FIG. 49 is a graph showing the results of the experiment. An attempt to determine the mechanism of inhibition by the inhibitor oxalate with respect to the substrate lactate against the enzyme rabbit muscle LDH using a microtiter plate to generate individual step concentration gradients was attempted. FIG. 50 is a graph showing the results of this experiment.

Chain of P. falciparum LDH (Q27743 whole entry): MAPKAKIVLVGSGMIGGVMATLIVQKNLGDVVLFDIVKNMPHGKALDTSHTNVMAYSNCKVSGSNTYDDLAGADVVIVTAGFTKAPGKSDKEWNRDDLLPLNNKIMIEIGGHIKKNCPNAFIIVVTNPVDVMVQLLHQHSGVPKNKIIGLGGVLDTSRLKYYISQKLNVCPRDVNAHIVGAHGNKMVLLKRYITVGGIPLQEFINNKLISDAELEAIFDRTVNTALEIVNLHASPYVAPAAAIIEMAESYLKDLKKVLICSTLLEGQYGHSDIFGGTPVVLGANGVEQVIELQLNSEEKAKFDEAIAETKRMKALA

## NC(=O)c1ccc[n+]([C@@H]2O[C@H](COP(=O)([O-])OP(=O)(O)OC[C@H]3O[C@@H](n4cnc5c(N)ncnc54)[C@H](O)[C@@H]3O)[C@@H](O)[C@H]2O)c1 [NAD^+]
[1]; titration of LDH with linear gradient of NAD^+, initial rate conditions
  Km: 54 ± 2 µM

## O=C(O)C(=O)O [oxalate]
[2]; with respect to NAD^+
  inhibition mechanism: uncompetitive
[2]; with respect to lactate, reported previously
  inhibition mechanism: competitive inhibitor
[1]; with respect to substrate NAD^+
  mechanism of inhibition: uncompetitive inhibition
[3]; with respect to NAD^+, ambiguous
  mechanism of inhibition: uncompetitive inhibitor
[3]; with respect to lactate
  mechanism of inhibition: competitive inhibitor
